The assay concerns the target T1, 5-lipoxygenase (Mus musculus, UniProt P48999).
T1 construct: The supernatant is used as a 5-lipogenase enzyme solution; endogenous in cells
T1 sequence (P48999 1-674): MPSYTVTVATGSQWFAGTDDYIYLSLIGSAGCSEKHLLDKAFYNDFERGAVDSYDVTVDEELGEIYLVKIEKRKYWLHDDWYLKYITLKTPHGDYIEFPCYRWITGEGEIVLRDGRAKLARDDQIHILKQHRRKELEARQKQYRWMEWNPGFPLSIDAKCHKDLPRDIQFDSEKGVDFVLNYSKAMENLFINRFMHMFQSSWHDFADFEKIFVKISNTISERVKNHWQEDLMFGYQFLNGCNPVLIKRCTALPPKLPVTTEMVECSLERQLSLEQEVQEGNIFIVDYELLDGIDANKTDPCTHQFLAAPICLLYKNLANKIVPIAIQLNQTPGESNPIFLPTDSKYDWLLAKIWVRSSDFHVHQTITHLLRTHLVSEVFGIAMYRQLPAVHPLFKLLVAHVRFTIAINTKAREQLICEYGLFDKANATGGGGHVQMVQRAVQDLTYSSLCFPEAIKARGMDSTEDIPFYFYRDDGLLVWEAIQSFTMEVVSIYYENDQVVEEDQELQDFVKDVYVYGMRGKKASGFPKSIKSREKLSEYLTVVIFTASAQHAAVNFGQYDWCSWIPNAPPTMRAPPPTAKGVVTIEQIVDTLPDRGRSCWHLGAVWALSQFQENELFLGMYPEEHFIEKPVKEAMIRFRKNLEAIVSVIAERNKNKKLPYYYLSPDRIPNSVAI
As to the kind of experiment: 5-Lipoxygenase-inhibiting Activity (decrease in 5-HETE and LTB4 formed from radiolabelled arachidonic acid, enzyme solution from mouse mastcytoma cells P-815). Type of assay: biochemical. The gist of the method:
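Enzyme is sonicated 10,000 rpm supernatant of P-815 mouse mastocytoma cells, reacted 5 min at 37 °C with radiolabelled arachidonic acid, indomethacin and CaCl2 in pH 7.4 phosphate buffer. 5-HETE and LTB4 separated by TLC and counted by scintillation; IC50 or IC30 is concentration reducing product to 50% or 30% of control.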

[1] abbreviates: 5-HETE and LTB4 formation, mouse mastcytoma P-815 enzyme solution, 37° C., 5 min, pH 7.4, with indomethacin, read-out: 50% Inhibitory concentration IC50.

Structures are written as SMILES. Like-named read-outs stand apart in the source and are kept apart here.

For the compound `COc1cc(/C=C/C=C/C(=O)Nc2ccccc2C(=O)O)ccc1O` [Example 13, N-5-(3-methoxy-4-hydroxyphenyl)-2,4-pentadienoylanthranilic acid], the IC50 under setting [1] came to 600 nM.

In the case of `COc1cc(/C=C/C=C/C(=O)NCc2c(COC(=O)c3ccc(C)cc3)cnc(C)c2O)ccc1O` [Example 41, 4-[5-(3-methoxy-4-hydroxyphenyl)-2,4-pentadienoyl]-aminomethyl-3-hydroxy-2-methyl-5-toluoxymethylpyridine], under setting [1], the IC50 came to 200 nM.

`COc1cc(/C=C/C(=O)Nc2ccccc2C(=O)O)cc(OC)c1O` [Example 51, N-[3-(3,5-dimethox-4-hydroxyphenyl)propenoyl]anthranilic acid]: under setting [1], the IC50 stood at 1000 nM.

Turning to `COc1cc(/C=C/C=C/C(=O)NCCCN2CCN(C(c3ccccc3)c3ccccc3)CC2)ccc1O` [Example 38, N-[3-[5-(3-methoxy-4-hydroxyphenyl)-2,4-pentadienoyl]aminopropyl]-N'-benzhydrylpiperazine], under setting [1], the IC50 came to 200 nM.

As for `COc1cc(/C=C/C=C/C(=O)NCCCCN2CCC(OC(c3ccccc3)c3ccccc3)CC2)cc(OC)c1O` [Example 133, 1-[4-[5-(3,5-dimethoxy-4-hydroxyphenol)-2,4-pentadienoyl]aminobutyl]-4-benzydroxypiperidine], the IC50 under setting [1] was found to be 20 nM.

On to `O=C(/C=C/C=C/c1ccc2c(c1)OCO2)NCCCN1CCN(C(c2ccccc2)c2ccccc2)CC1` [Example 62, N-[3-[5-(3,4,-methylenedioxyphenyl)-2,4-pentadienoyl]aminopropyl]-N'-benzhydrylpipeerazine], for which the IC50 under setting [1] is 2000 nM.

With `O=C(/C=C/c1ccc(O)c(O)c1)NCCN1CCN(C(c2ccccc2)c2ccc(Cl)cc2)CC1` (stereo not drawn) [Example 12, N-(p-chlorobenzhydryl)-N'-[2-{3-(3,4-dihydroxyphenyl)-2-propenoyl}aminoethyl]piperazine], the IC50 under setting [1] was 80 nM.

`COc1cc(/C=C/C(=O)NCCCCNC(=O)c2ccccc2N)ccc1O` [Example 35, N-3-[3-methoxy-4-hydroxy]pyenyl-2-butenoyl-N'-(2-amino)benzoylptolesine]: the IC50 under setting [1] came to 20000 nM.

Consider `O=C(/C=C/c1ccc(O)c(O)c1)NCCN1CCN(C(c2ccccc2)c2ccccc2)CC1` [Example 9, N-benzhydryl-N'-[2-{3-(3,4-dihydroxyphenyl)-2-propenoyl}-aminoethyl]piperazine], for which, under setting [1], the IC50 was 100 nM.

`O=C(/C=C/c1ccc(O)c(O)c1)NCCOC(c1ccccc1)c1ccccc1` [Example 67, 2-[3-(3,4-dihydroxy)phenyl-2-propenoyl]aminoethyl benzhydryl ether]: the IC50 under setting [1] worked out at 30 nM.

In the case of `COc1cc(/C=C/C=C/C(=O)NCCN2CCN(C(=O)c3ccccc3N)CC2)ccc1O` [Example 42, N-(o-aminobenzoyl)-N'-[{5-(3-methoxy-4-hydroxyphenyl)-2,4-pentadienoyl}aminoethyl]piperazine], the IC50 under setting [1] is 2000 nM.

With `O=C(/C=C/C=C/c1ccc(O)c(O)c1)NCCN1CCN(C(c2ccccc2)c2ccc(Cl)cc2)CC1` (stereo not drawn) [Example 28], the IC50 under setting [1] amounted to 10 nM.

Take `CC/C=C\C/C=C\C/C=C\C/C=C\C/C=C\C/C=C\CCC(=O)NCCCCNC(=O)/C=C/c1ccc(O)c(O)c1` [Example 6, N-[3-(3,4-dihydroxyphenyl)-2-propenoyl]-N'-[4,7,10,13,16,19-docosahexaenoyl]1,4-diaminobutane]: the IC50 under setting [1] is 60 nM.

On to `COc1cc(/C=C/C(=O)NCc2c(CO)cnc(C)c2O)cc(OC)c1O` [Example 50, 4-[3-(3,5-dimethoxy-4-hydroxyphenyl)-2-propenoyl]aminomethyl-3-hydroxy-5-hydroxymethyl-2-methylpyridine], for which, under setting [1], the IC50 was determined as 6000 nM.

`COc1cc(/C=C/C=C/C(=O)NCCN2CCC(OC(c3ccccc3)c3ccccc3)CC2)cc(OC)c1O` [Example 120, 1-[2-[5-(3,5-dimethoxy-4-hydroxyphenyl)-2,4-pentadienoyl]aminoethyl]-4-benzhydroxypiperidine]: the IC50 under setting [1] is 10 nM.

For `COc1cc(/C=C/C(=O)N2CCN(CCOC(C)(c3ccccc3)c3ccc(Cl)cc3)CC2)ccc1O` (stereo not drawn) [Example 102, N-[3-[3-methoxy-4-hydroxyphenyl)-2-propenoyl]-N'-[2-[1-phenyl-1-(p-chlorophenyl)ethoxy]ethyl]piperazine], the IC50 under setting [1] worked out at 200 nM.

For `O=C(/C=C/C=C/c1ccc(O)c(O)c1)NCCN1CCC(OC(c2ccccc2)c2ccccc2)CC1` [Example 118], the IC50 under setting [1] came to 30 nM.

Regarding `COc1cc(/C=C/C=C/C(=O)N2CCN(C(c3ccccc3)c3ccccc3)CC2)ccc1O` [Example 15, 1-benzhydryl-4-{5-(3-methoxy-4-hydroxyphenyl)-2,4-pentadienoyl}piperazene], the IC50 under setting [1] is 90 nM.

As for `CC(=O)NCCCCNC(=O)/C=C/C=C/c1ccc(O)c(O)c1` [Example 20, N-{5-(3,4-dihydroxyphenyl)-2,4-pentadienoyl}-N'-acetyl-1,4-diaminobutane], under setting [1], the IC50 is 1000 nM.

Take `O=C(/C=C/c1ccc(O)c(O)c1)Nc1ccccc1O` [Example 11, N-{3-(3,4-dihydroxyphenyl)-2-propenoyl}-o-aminophenol]: the IC50 under setting [1] came out at 40 nM.

As to `O=C(/C=C/c1ccc(O)c(O)c1)NCCCCNC(=O)/C=C/c1ccc(O)c(O)c1` [Example 7, N,N'-bis-[(3,4-dihydroxyphenyl)-2-propenoyl]-1,4-diaminobutane], the IC50 under setting [1] was 500 nM.

Turning to `COc1cc(/C=C/C(=O)NCCn2cnc3c2c(=O)n(C)c(=O)n3C)ccc1O` [Example 69, 7-[2-[3-(3-methoxy-4-hydroxy)phenyl-2-propenoyl]aminoethyl]theophylline], the IC50 under setting [1] was determined as 6000 nM.

As to `COc1cc(/C=C/C(=O)NCCN2CCN(C(c3ccccc3)c3ccccc3)CC2)ccc1O` [Example 2, N-benzhydryl-N'-[2-{3-(3-methoxy-4-β-hydroxyphenyl)-2-propenoyl}aminoethyl]piperazine], the IC50 under setting [1] was found to be 600 nM.

For the compound `COc1cc(/C=C/C=C/C(=O)NCCCN2CCC(OC(c3ccccc3)c3ccccc3)CC2)ccc1O` [Example 131], under setting [1], the IC50 amounted to 7 nM.

Consider `COc1ccc(/C=C/C=C/C(=O)NCCCCN2CCN(C(c3ccccc3)c3ccccc3)CC2)cc1OC` [Example 93], for which the IC50 under setting [1] was determined as 3000 nM.

For the compound `COc1cc(/C=C/C=C/C(=O)NCCOC(c2ccccc2)c2ccccc2)ccc1O` [Example 91, 2-[5-(3-methoxy-4-hydroxy)phenyl-2,4-pentadienoyl]aminoethyl benzhydryl ether], the IC50 under setting [1] turned out to be 60 nM.

Consider `O=C(/C=C/C=C/c1ccc(O)c(O)c1)N1CCN(CCOC(c2ccccc2)c2ccccc2)CC1` [Example 84, N-[5-(3,4-dihydroxyphenyl)-2,4-pentadienoyl]--N'-(2-benzhydroxyethyl)piperazine], for which the IC50 was 30 nM.

`COc1cc(/C=C/C(=O)NCCOC(c2ccccc2)c2ccccc2)ccc1O` [Example 72, 2-[3-(3-methoxy-4-hydroxy)phenyl-2-propenoyl]aminoethyl benzhydryl ether]: under setting [1], the IC50 came out at 900 nM.

Regarding `COc1cc(/C=C/C=C/C(=O)N2CCN(CCOC(c3ccccc3)c3ccccc3)CC2)cc(OC)c1O` [Example 98, N-[5-(3,5-dimethoxy-4-hydroxyphenyl)-2,4-pentadienoyl)-N'-(2-benzhydroxyethyl)piperazine], the IC50 came out at 9 nM.

For `O=C(/C=C/C=C/c1ccc(O)c(O)c1)Nc1ccccc1C(=O)O` [Example 24, N-5-(3,4-dihydroxyphenyl)-2,4-pentadienoylanthranilic acid], under setting [1], the IC50 was determined as 100 nM.

On to `CC(=O)OCc1cnc(C)c(O)c1CNC(=O)/C=C/c1ccc(O)c(O)c1` [Example 5, N-caffeoyl-o-acetylpyridoxane], for which, under setting [1], the IC50 was 1000 nM.

With `COc1cc(/C=C/C(=O)NCCN2CCC(OC(c3ccccc3)c3ccccc3)CC2)ccc1O` [Example 116, 1-[2-[3-(3-methoxy-4-hydroxyphenyl)-2-propenoyl]aminoethyl]-4-benzhydroxypiperidine], the IC50 under setting [1] was found to be 400 nM.

Consider `O=C(/C=C/C=C/c1ccc(O)c(O)c1)Nc1ccc(O)cc1` [Example 25, N-5-(3,4-dihydroxyphenyl)-2,4-pentadienoylaminophenol], for which the IC50 under setting [1] was determined as 80 nM.

As for `COc1cc(/C=C/C=C/C(=O)NCCCCN2CCN(C(c3ccccc3)c3ccccc3)CC2)ccc1O` [Example 87, N-benzhydryl-N'-[4-[5-(3-methoxy-4-hydroxyphenyl)-2,4-pentadienoyl]aminobutyl]piperzine], the IC50 under setting [1] came out at 60 nM.

Consider `COc1cc(/C=C/C=C/C(=O)NCCCCN2CCN(C(c3ccccc3)c3ccc(Cl)cc3)CC2)cc(OC)c1O` (stereo not drawn) [Example 96, N-p-chlorobenzhydryl-N'-5-(3,5-dimethoxy-4-hydroxy)phenyl-2,4-pentadienlylaminobutylpiperazine], for which, under setting [1], the IC50 was determined as 20 nM.

As to `COc1cc(/C=C/C(=O)NCCCOC(c2ccccc2)c2ccccc2)ccc1O` [Example 73, 3-[3-[3-methoxy-4-hydroxyphenyl)-2-propenoyl]aminopropyl benzhydryl ether], under setting [1], the IC50 stood at 700 nM.
